Consider 15 molecules from patent US10414721B1, “Inhibitor of endocannabinoid cellular reuptake” (University of Bern, priority 2018, dated 2019).

Read-outs that look alike come from different tables or passages of the source.

One data set has as its system AEA uptake in U937 cells. As to the kind of experiment: AEA uptake inhibition in U937 cells. Format: cell-based. To be noted: for IC50 / IC50 for AEA uptake inhibition: U937 cells. Here is the method:
Based on the natural product (2E,4E)-N-isobutylamidedodeca-2,4-dienamide from the medicinal plant E. purpurea as a starting point, a library of 634 of analogs and derivatives with varying alkyl chain length was synthesized, and structure of the head group moiety analyzed. All new derivatives were tested for AEA uptake inhibition in U937 cells using a high-content screening assay.
(§1) All radioactivity-based AEA and 2-AG uptake and release assays performed in U937, and HMC-1 cells were carried out using two different assay formats as previously reported. AEA and 2-AG uptake assay in Neuro2a and primary mouse cortical neurons were performed with a different method disclosed in Chicca 2017.

A short description of data set [1]: 14C-WOBE437 saturation binding to U937 membranes. To be noted: for competition with 14C-WOBE437 binding: brain and U937 membranes. Here is the method:
(§2) In addition to their effects on AEA uptake, the inhibition of FAAH was thoroughly investigated for all nanomolar inhibitors. […] The lack of significant FAAH inhibition by WOBE437 was established in different assay systems using human recombinant enzyme, cell and brain homogenates. […] Importantly, WOBE437 (1 μM) inhibited AEA uptake also in primary mouse cortical neurons by 50% after 2-7 min of incubation with a smaller inhibition (20-35%) upon longer incubation (10-20 min, FIG. 1F). […] In Neuro2a cells, incubation with WOBE437 (5 μM) for 2 and 5 min reduced overall uptake by 40%. (FIG. 1G). […] Then cells were treated with radiolabeled ^14C-WOBE437 to investigate the cellular penetration of the compound. In U937 cells, the vast majority of the radioactive signal was collected in the extracellular and membrane-bound fractions (75-90%), with negligible amounts (5-9%) detected in the intracellular fraction (FIGS. 2A-D). […] In order to further investigate this point, ^14C-WOBE437 was applied to membrane preparations generated in-house from mouse brain and U937 cells. […] The Kd values are in line with the IC50 values shown in the functional AEA uptake assays in Neuro2a and U937 cells (FIGS. 1C and 1D). In further experiments, 10 nM of ^14C-WOBE437 was co-incubated with different concentrations of AEA and U937 membranes. […] Furthermore, the endocannabinoids AEA and noladin ether and the AEA uptake inhibitor OMDM-2 could compete with ^14C-WOBE437 binding in brain and U937 membranes. […] Secondary plots of the slope (Kmapp/Vmaxapp vs. [WOBE437]) and intercept (1/Vmaxapp vs. [WOBE437]) confirmed the competitive inhibition of AEA uptake.

Data set [2] relates to 2-AG uptake in Neuro2a cells. Put plainly: 2-AG uptake and hydrolysis in Neuro2a cells. Type of data set: cell-based, mouse. To be noted: Neuro2a cells, time course. Here is the method:
as §1

For data set [3], the system named is main EC degrading enzymes (FAAH, MAGL). To be noted: cited from earlier work.
For another data set, the system named is U937 cells. Put plainly: Localization of 14C-WOBE437 in cellular fractions of U937 cells. Format: cell-based. Here is the method:
FIGS. 2A-D: Different initial amounts of ^14C-WOBE437 were incubated for 15 min with 1×10^6 of U937 cells at 37° C. Afterwards, cells were centrifuged and the ^14C-signal was measured from the extracellular (light grey), membrane-bound (dark grey) and intracellular (white) fraction. The results are reported in absolute amounts and as percentage of the initial amount.
The cell penetration and tissue distribution of ^14C-WOBE437 was assessed in U937 cells and C57BL6/N mice as described in Chicca 2017.

Data set [4] in a line: 14C-WOBE437 saturation binding to mouse brain membranes. To be noted: mouse brain membranes. Here is the method: as §2
Data set [5] in a line: LC-MS/MS quantification of WOBE437 in tissues after i.p. injection. The following applies: 10 mg/kg i.p., C57BL6/N mice, after 1 h. Format: in vivo, mouse.
A further data set deals with C57BL6/J mice. To be noted: repeated administrations; cited from earlier work.
The test system of a further data set is CB1 receptors. To be noted: repeated administrations; cited from earlier work.

As for `CCCCCCC/C=C/C=C/C(=O)NCCO` [(2E,4E)-dodecadienoyl ethanolamine], inhibition in the data set with AEA uptake in U937 cells was half-maximal at 3470 nM (IC50).
Regarding `CCCCC/C=C\C/C=C\C/C=C\C/C=C\CCCCOC(CO)CO` [noladin ether], the “competition with 14C-WOBE437 binding” value in data set [1] was “could compete”.
On to `CCCCC/C=C\C/C=C\C/C=C\C/C=C\CCCC(=O)NCCO` [AEA, N-arachidonoylethanolamine], for which the “effect on 14C-WOBE437 binding curve” value in data set [1] (10 nM 14C-WOBE437 co-incubated with increasing AEA) is on record as “increase of Kd values, while not significantly modifying Bmax values”. Moreover, the “competition with 14C-WOBE437 binding” value in [1] is reported as “could compete”.
For the molecule `CCCCCCCC=CC=CC(=O)NCc1cccnc1` [pyridin-3-ylmethyl], the IC50 with AEA uptake in U937 cells (100 nM total AEA) worked out at 2690 nM. This lies in the single-digit micromolar range.
As to `CN(Cc1cccc(-c2ccncc2)c1)C(=O)Oc1ccc(-c2ccc(C(N)=O)cc2)cc1` [WWL70, reference compound], in data set [2], the “effect on 2-AG uptake and hydrolysis” value is “prevented 2-AG uptake and hydrolysis occurring at later time points”.
Take `CCCCC/C=C\C/C=C\C/C=C\C/C=C\CCCC(=O)Nc1ccc(O)cc1C` [VDM11, N-(2-methyl-4-hydroxy-phenyl)-arachidonamide]: in data set [3], the “substrate of FAAH or MAGL” value is reported as “substrates for h/rFAAH or hMAGL”.
For the molecule benzodioxole, the “potency for AEA uptake relative to WOBE437 (times less potent)” value in the data set on AEA uptake in U937 cells is recorded as “approximately 13 times”.
`CCCCCCCC=CC=CC(=O)NCCc1ccccc1` [unsubstituted parent compound]: the concentration for half-maximal inhibition (IC50) in the data set on AEA uptake in U937 cells (100 nM total AEA) is 1140 nM.
Regarding `CCCCCCC/C=C/C=C/C(=O)NCCc1cccnc1` [2-(pyridin-3-yl)]ethyl], in the data set with AEA uptake in U937 cells (100 nM total AEA), the IC50 amounted to 101 nM and the “IC50 for AEA uptake inhibition” value was “nanomolar range”.
For the molecule `CCCCCCC/C=C/C=C/C(=O)NCCc1ccc2c(c1)OCCO2` [N-(2,3-dihydro-1,4-benzodioxin-6-yl)ethyl dodeca-2E,4E-dienamide], the “potency for AEA uptake relative to WOBE437 (times less potent)” value with AEA uptake in U937 cells was “approximately 13 times”. Also, in the data set on AEA uptake in U937 cells (100 nM total AEA), the “IC50 for AEA uptake inhibition” value is given as “nanomolar range”.
In the case of `CCCCCCCC/C=C\CCCCCCCC(=O)N[C@@H](CO)Cc1ccc(O)cc1` [OMDM-2], the “competition with 14C-WOBE437 binding” value in data set [1] was “could compete”.
In the case of `CCCCCCC/C=C/C=C/C(=O)NCCc1ccc(OC)c(OC)c1` [^14C-WOBE437], the membrane-associated signal is listed as 9.8 % of total signal in the data set with U937 cells (10 nM), 1.7 % of total signal with U937 cells (100 nM), 0.7 % of total signal in the data set with U937 cells (1 μM) and 0.7 % of total signal in the data set with U937 cells (10 μM). Besides, in the data set with U937 cells (100 nM, 0-30 min), the “cell-associated radioactive signal over time” value is “approximately 10 % of total signal”. Besides, the “radioactive signal in extracellular and membrane-bound fractions” value in the data set on U937 cells (U937 cells, 15 min, 37° C.) is on record as 75-90%. Moreover, in the data set with U937 cells (U937 cells, 15 min, 37° C.), the “radioactive signal in intracellular fraction” value is 5-9%. Besides, the results for the Bmax in data set [4] and in data set [1] (U937 membranes) were 18.2±1.5 fmol/mg protein and 15.6±1.4 fmol/mg protein, respectively. For the same molecule, the Kd in data set [4] (read-out: Kd) turned out to be 15.7 ± 2.8 nM; in [1] (U937 membranes), 11.3 ± 2.4 nM. The “tissue distribution of 14C signal” value in data set [5] is given as “highest ^14C signal was measured in adipose tissue”.
For the molecule `CCCCC/C=C\C/C=C\C/C=C\C/C=C\CCCC(=O)Nc1ccc(O)cc1` [AM404, N-(4-hydroxyphenyl)arachidonamide], in data set [3] (h/rFAAH or hMAGL), the “substrate of FAAH or MAGL” value is on record as “substrates for h/rFAAH or hMAGL”.
Turning to `O=C(Oc1ccc([N+](=O)[O-])cc1)N1CCC(C(O)(c2ccc3c(c2)OCO3)c2ccc3c(c2)OCO3)CC1` [JZL184], in [2], the “effect on 2-AG uptake and hydrolysis” value was “specifically inhibited hydrolysis”. In addition, the “2-AG overflow relative to basal levels” value in the data set on C57BL6/J mice is 10-12 times basal levels. Moreover, in the data set with CB1 receptors, the “effect on CB1 receptors” value is on record as “desensitize CB1 receptors”.
Regarding `CCCCC/C=C\C/C=C\C/C=C\C/C=C\CCCC(=O)NCc1ccoc1` [UCM707], in [3] (h/rFAAH or hMAGL), the “substrate of FAAH or MAGL” value is “substrates for h/rFAAH or hMAGL”.

As usually defined, the IC50 is the concentration that inhibits the measured activity by half. For orientation: Kd means a measure of binding affinity in units of concentration.
